# Test results reported in PubChem BioAssay AID1259407 (Chemical Carcinogenesis Research Information System (CCRIS), 2018).
# Activity calls are given as the source filed them. The rule behind the calls is not given here.
# Tested on: CCRIS mutagenicity, Ames/micronucleus/aberration tests
# Assay: CCRIS mutagenicity studies
# Conditions: Test System: AMES SALMONELLA TYPHIMURIUM
# [1] = Strain/Indicator: TA98, Metabolic Activation: HAMSTER, LIVER, S-9, AROCLOR 1254 (10%), Method: PREINCUBATION
# [2] = Strain/Indicator: TA98, Metabolic Activation: NONE, Method: PREINCUBATION
# [3] = Strain/Indicator: TA100, Metabolic Activation: HAMSTER, LIVER, S-9, AROCLOR 1254 (10%), Method: PREINCUBATION
# [4] = Strain/Indicator: TA100, Metabolic Activation: NONE, Method: PREINCUBATION
# [5] = Strain/Indicator: TA1535, Metabolic Activation: HAMSTER, LIVER, S-9, AROCLOR 1254 (10%), Method: PREINCUBATION
# [6] = Strain/Indicator: TA1535, Metabolic Activation: NONE, Method: PREINCUBATION
# [7] = Strain/Indicator: TA1535, Metabolic Activation: RAT, LIVER, S-9, AROCLOR 1254 (10%), Method: PREINCUBATION
# [8] = Strain/Indicator: TA1537, Metabolic Activation: NONE, Method: PREINCUBATION
smiles,measurement,setting,value
O=Nc1ccc(O)cc1,mutagenic call,"Strain/Indicator: TA97, Metabolic Activation: HAMSTER, LIVER, S-9, AROCLOR 1254 (10 OR 30%), Method: PREINCUBATION",inactive; negative
same,mutagenic call,"Strain/Indicator: TA97, Metabolic Activation: NONE, Method: PREINCUBATION",inactive; negative
same,mutagenic call,"Strain/Indicator: TA97, Metabolic Activation: RAT, LIVER, S-9, AROCLOR 1254 (10 OR 30%), Method: PREINCUBATION",inactive; negative
same,mutagenic call,[1],inactive; negative
same,mutagenic call,"Strain/Indicator: TA98, Metabolic Activation: HAMSTER, LIVER, S-9, AROCLOR 1254 (30%), Method: PREINCUBATION",active; positive
same,mutagenic call,[2],active; positive
same,mutagenic call,"Strain/Indicator: TA98, Metabolic Activation: RAT, LIVER, S-9, AROCLOR 1254 (10 OR 30%), Method: PREINCUBATION",inactive; negative
same,mutagenic call,[3],inactive; negative
same,mutagenic call,"Strain/Indicator: TA100, Metabolic Activation: HAMSTER, LIVER, S-9, AROCLOR 1254 (30%), Method: PREINCUBATION",active; positive
same,mutagenic call,[4],inactive; negative
same,mutagenic call,"Strain/Indicator: TA100, Metabolic Activation: RAT, LIVER, S-9, AROCLOR 1254 (10 OR 30%), Method: PREINCUBATION",inactive; negative
same,mutagenic call,[5],inactive; negative
same,mutagenic call,[6],inactive; negative
same,mutagenic call,[7],inactive; negative
CCCCCCCCCCCCN(C)N=O,mutagenic call,"Strain/Indicator: TA100, Metabolic Activation: RAT, LIVER, S-9, KC500 OR PHENOBARBITAL, Method: LIQUID SUSPENSION",active; positive
Cc1c(-c2cnccn2)ssc1=S,mutagenic call,"Strain/Indicator: TA98, Metabolic Activation: NONE, Method: STANDARD PLATE",inactive; negative
same,mutagenic call,"Strain/Indicator: TA98, Metabolic Activation: RAT, LIVER, S-9, AROCLOR 1254 OR PHENOBARBITOL, Method: STANDARD PLATE",inactive; negative
same,mutagenic call,"Strain/Indicator: TA100, Metabolic Activation: NONE, Method: STANDARD PLATE",inactive; negative
same,mutagenic call,"Strain/Indicator: TA100, Metabolic Activation: RAT, LIVER, S-9, AROCLOR 1254 OR PHENOBARBITOL, Method: STANDARD PLATE",inactive; negative
same,mutagenic call,"Strain/Indicator: TA1535, Metabolic Activation: NONE, Method: STANDARD PLATE",inactive; negative
same,mutagenic call,"Strain/Indicator: TA1535, Metabolic Activation: RAT, LIVER, S-9, AROCLOR 1254 OR PHENOBARBITOL, Method: STANDARD PLATE",inactive; negative
same,mutagenic call,"Strain/Indicator: TA1537, Metabolic Activation: NONE, Method: STANDARD PLATE",inactive; negative
same,mutagenic call,"Strain/Indicator: TA1537, Metabolic Activation: RAT, LIVER, S-9, AROCLOR 1254 OR PHENOBARBITOL, Method: STANDARD PLATE",inactive; negative
same,mutagenic call,"Strain/Indicator: TA1538, Metabolic Activation: NONE, Method: STANDARD PLATE",inactive; negative
same,mutagenic call,"Strain/Indicator: TA1538, Metabolic Activation: RAT, LIVER, S-9, AROCLOR 1254 OR PHENOBARBITOL, Method: STANDARD PLATE",inactive; negative
N[C@H](Cc1ccccc1)C(=O)O,mutagenic call,[1],inactive; negative
same,mutagenic call,[2],inactive; negative
same,mutagenic call,"Strain/Indicator: TA98, Metabolic Activation: RAT, LIVER, S-9, AROCLOR 1254 (10%), Method: PREINCUBATION",inactive; negative
same,mutagenic call,[3],inactive; negative
same,mutagenic call,[4],inactive; negative
same,mutagenic call,"Strain/Indicator: TA100, Metabolic Activation: RAT, LIVER, S-9, AROCLOR 1254 (10%), Method: PREINCUBATION",inactive; negative
same,mutagenic call,[5],inactive; negative
same,mutagenic call,[6],inactive; negative
same,mutagenic call,[7],inactive; negative
same,mutagenic call,"Strain/Indicator: TA1537, Metabolic Activation: HAMSTER, LIVER, S-9, AROCLOR 1254 (10%), Method: PREINCUBATION",inactive; negative
same,mutagenic call,[8],inactive; negative
same,mutagenic call,"Strain/Indicator: TA1537, Metabolic Activation: RAT, LIVER, S-9, AROCLOR 1254 (10%), Method: PREINCUBATION",inactive; negative
CCCCOC(=O)c1ccc(N)cc1,mutagenic call,"Strain/Indicator: TA98, Metabolic Activation: HAMSTER, LIVER, S-9, AROCLOR 1254, Method: PREINCUBATION",inactive; negative
same,mutagenic call,[2],inactive; negative
same,mutagenic call,"Strain/Indicator: TA98, Metabolic Activation: RAT, LIVER, S-9, AROCLOR 1254, Method: PREINCUBATION",inactive; negative
same,mutagenic call,"Strain/Indicator: TA100, Metabolic Activation: HAMSTER, LIVER, S-9, AROCLOR 1254, Method: PREINCUBATION",inactive; negative
same,mutagenic call,[4],inactive; negative
same,mutagenic call,"Strain/Indicator: TA100, Metabolic Activation: RAT, LIVER, S-9, AROCLOR 1254, Method: PREINCUBATION",inactive; negative
same,mutagenic call,"Strain/Indicator: TA1535, Metabolic Activation: HAMSTER, LIVER, S-9, AROCLOR 1254, Method: PREINCUBATION",inactive; negative
same,mutagenic call,[6],inactive; negative
same,mutagenic call,"Strain/Indicator: TA1535, Metabolic Activation: RAT, LIVER, S-9, AROCLOR 1254, Method: PREINCUBATION",inactive; negative
same,mutagenic call,"Strain/Indicator: TA1537, Metabolic Activation: HAMSTER, LIVER, S-9, AROCLOR 1254, Method: PREINCUBATION",inactive; negative
same,mutagenic call,[8],inactive; negative
same,mutagenic call,"Strain/Indicator: TA1537, Metabolic Activation: RAT, LIVER, S-9, AROCLOR 1254, Method: PREINCUBATION",inactive; negative
